Here are results for 19 compounds from PubChem BioAssay (NCI).

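A five-concentration, 48-hour dose response in 96-well plates underlies each endpoint, interpolated linearly between surrounding concentrations. GI50 marks 50% less growth. TGI marks complete inhibition of growth.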

Among the test systems are BT-549 breast; DU-145 prostate; MDA-MB-435; T-47D breast; DLD-1 colon; KM20L2 colon; SNB-78 CNS; XF 498 CNS; DMS 114 small cell lung; HOP-18 NSCLC.
What all share (assay): inhibition of tumour cell growth, NCI panel, 48 h

Regarding `COc1cc2c(cc1OCCCOc1cc3c(cc1OC)C(=O)N1CC(F)(F)C[C@H]1C=N3)N=C[C@@H]1CC(F)(F)CN1C2=O`, the GI50 in the assay with BT-549 breast is 0.727 µM; with DU-145 prostate it was 0.329 µM; with MDA-MB-435, 1.6 µM; with T-47D breast, 0.344 µM. Also, the TGI turned out to be 3.12 µM with BT-549 breast, 2.82 µM in the assay on DU-145 prostate, 4.91 µM in the assay on MDA-MB-435 and 5.12 µM with T-47D breast.
Take `COc1ccc2c(c1)C(=O)c1c-2n(CCCCl)c(=O)c2cc([N+](=O)[O-])ccc12`: the GI50 with BT-549 breast is 1.56 µM; in the assay on DU-145 prostate, 0.0361 µM; in the assay with MDA-MB-435, 0.985 µM. Also, the TGI in the assay on BT-549 breast was greater than 100 µM; in the assay with DU-145 prostate it was greater than 100 µM; in the assay with MDA-MB-435, 9.22 µM; in the assay on T-47D breast, greater than 100 µM.
In the case of `N=C(N)SC(c1ccccc1)c1ccccc1`, the TGI with BT-549 breast came to 37.2 µM; with DU-145 prostate, 25.4 µM; with MDA-MB-435, 26.5 µM; in the assay on T-47D breast, 22.6 µM.
`NS(=O)(=O)c1ccc(C(=O)O)cc1`: the TGI in the assay with BT-549 breast, in the assay on DU-145 prostate, in the assay with MDA-MB-435 and in the assay on T-47D breast was greater than 100 µM each time.
With `CC(C)(c1ccccc1)c1ccc(Oc2ccc3c(c2)-c2nc-3nc3[nH]c(nc4nc(nc5[nH]c(n2)c2ccc(Oc6ccc(C(C)(C)c7ccccc7)cc6)cc52)-c2cc(Oc5ccc(C(C)(C)c6ccccc6)cc5)ccc2-4)c2ccc(Oc4ccc(C(C)(C)c5ccccc5)cc4)cc32)cc1`, the TGI with DLD-1 colon, with KM20L2 colon, with SNB-78 CNS and in the assay with XF 498 CNS was greater than 100 µM each time.
For `Cc1cccc(NC(N)=S)c1`, the TGI in the assay on DLD-1 colon, with DMS 114 small cell lung, with SNB-78 CNS and in the assay on XF 498 CNS was greater than 100 µM throughout.
Regarding `O=C(Nc1ccc(-n2ccc3c(NC(=O)c4ccccc4)ncnc32)cc1)Nc1ccc(Cl)c(C(F)(F)F)c1`, the GI50 in the assay with DU-145 prostate is 2.12 µM; in the assay with MDA-MB-435, 1.85 µM; in the assay with T-47D breast, 2.27 µM. The results for the TGI in the assay on DU-145 prostate, in the assay on MDA-MB-435 and in the assay with T-47D breast were 4.61 µM, 4.43 µM and 5.73 µM, respectively.
For the compound `CCc1cc(C)cc2[n+]1CC=C2C`, the TGI in the assay with DLD-1 colon is greater than 100 µM; in the assay with HOP-18 NSCLC, 9.88 µM; in the assay on KM20L2 colon it was greater than 100 µM; in the assay on SNB-78 CNS, greater than 100 µM.
For the compound `CN(C)C=O.CN(C)C=O.CN1C(C(=O)Nc2ccccn2)=C([O-])c2ccccc2S1(=O)=O.CN1C(C(=O)Nc2ccccn2)=C([O-])c2ccccc2S1(=O)=O.[Cu+2]`, the GI50 with DMS 114 small cell lung was 32.2 µM; in the assay with HOP-18 NSCLC it was greater than 100 µM; in the assay with KM20L2 colon it was greater than 100 µM; with SNB-78 CNS it was 64.3 µM; with XF 498 CNS, 18.8 µM. The TGI is greater than 100 µM in the assay with DMS 114 small cell lung; greater than 100 µM in the assay with HOP-18 NSCLC; greater than 100 µM in the assay on KM20L2 colon; greater than 100 µM in the assay with SNB-78 CNS; 34.4 µM in the assay on XF 498 CNS.
On to `COc1ccc(C(=O)NNC(=O)c2nsc3ccccc23)cc1`, for which the TGI in the assay with DMS 114 small cell lung, in the assay on KM20L2 colon and with SNB-78 CNS was greater than 100 µM in each case.
Turning to `COC(=O)C12OCC34C(CC5C(C)C6=CC(=O)OC6=CC5(C)C3C(O)C1O)OC(=O)C(OC(C)=O)C24` (centres undefined), the TGI in the assay with DLD-1 colon is 25.3 µM; with DMS 114 small cell lung it was 35.4 µM; in the assay with HOP-18 NSCLC, 27.9 µM; in the assay on KM20L2 colon, 33.3 µM; in the assay on SNB-78 CNS, 48.7 µM; in the assay with XF 498 CNS, 25.4 µM.
As for `O=C1CC(c2ccccc2)NCCCCN2CC(CN1)C(C(O)c1ccccc1)C2=O` (centres undefined), the TGI in the assay on BT-549 breast, in the assay with DU-145 prostate, with MDA-MB-435 and in the assay on T-47D breast was greater than 100 µM each time.
`CC1(C)CCCC2(C)C3=C(CCC12)C(=O)OC3` (centres undefined): the TGI in the assay on BT-549 breast, in the assay with DU-145 prostate, in the assay on MDA-MB-435 and in the assay on T-47D breast was greater than 100 µM throughout.
As for `NC(CCCNc1ccc(O)cc1)C(=O)O` (centres undefined), the TGI in the assay with DLD-1 colon is 42.6 µM; in the assay with DMS 114 small cell lung it was 54.1 µM; with HOP-18 NSCLC it was greater than 100 µM; in the assay on KM20L2 colon it was greater than 100 µM; with SNB-78 CNS, greater than 100 µM; in the assay with XF 498 CNS, 38.2 µM.
As for `Cc1cc(N2CCCCC2)nc(NCc2cc(Nc3ccnc4cc(Cl)ccc34)ccc2F)n1`, the GI50 in the assay with DU-145 prostate was 1.49 µM; in the assay with MDA-MB-435, 1.64 µM; in the assay on T-47D breast, 1.26 µM. The TGI in the assay on DU-145 prostate was found to be 3.14 µM; in the assay with MDA-MB-435, 3.14 µM; in the assay with T-47D breast it was 2.99 µM.
For `NCc1ccc(O)c(O)c1O`, the TGI is 34.2 µM in the assay on BT-549 breast; 37.2 µM with DLD-1 colon; 42.8 µM with DMS 114 small cell lung; greater than 100 µM in the assay on DU-145 prostate; greater than 100 µM in the assay with HOP-18 NSCLC; greater than 80.9 µM in the assay with KM20L2 colon. In addition, the TGI is 32.7 µM in the assay with MDA-MB-435, greater than 100 µM in the assay with SNB-78 CNS, 71.6 µM in the assay with T-47D breast and 56.4 µM in the assay on XF 498 CNS.
Consider `Cn1c(=O)c2c(nc(N3CCOCC3)n2CCCNCC(O)c2ccc(O)c(O)c2)n(C)c1=O` (centres undefined), for which the TGI in the assay with BT-549 breast, in the assay with DU-145 prostate, in the assay on MDA-MB-435 and in the assay with T-47D breast was greater than 100 µM throughout.
Regarding `Cc1nc2ccccc2c(=O)n1Nc1ccc(C(=O)O)cc1`, the TGI with DLD-1 colon, in the assay on DMS 114 small cell lung, in the assay on HOP-18 NSCLC, in the assay with KM20L2 colon, in the assay with SNB-78 CNS and in the assay on XF 498 CNS was greater than 100 µM each time.
`CC(C)C(C)C(O)C(O)C(C)C1CCC2C3COC(=O)C4CC(O)C(O)CC4(C)C3CCC12C` (centres undefined): the TGI in the assay with BT-549 breast, with DU-145 prostate, in the assay with MDA-MB-435 and in the assay on T-47D breast was greater than 100 µM each time.
